Data published in ChEMBL document CHEMBL1133044, “Nonpeptide GPIIB/IIIA receptor antagonists. Part 21: C-6 flexibility and amide bond orientation are important factors in determining the affinity of compounds for activated or resting platelet receptors” (Bioorg Med Chem Lett, 2000).
pIC50, pKd: −log10 of the molar value.

Key:
[1] = molecular target: T1, Integrin alpha-IIb/beta-3 (Homo sapiens, UniProt P05106+P08514); assay: Competition with [1251]L-692,884 for binding to purified alpha IIb/beta3 integrin, activated by coating onto yttrium silicate scintillation proximity assay fluomicrospheres.; type: protein-complex assay
Target sequence in this assay (P05106 27-788 limits assumed): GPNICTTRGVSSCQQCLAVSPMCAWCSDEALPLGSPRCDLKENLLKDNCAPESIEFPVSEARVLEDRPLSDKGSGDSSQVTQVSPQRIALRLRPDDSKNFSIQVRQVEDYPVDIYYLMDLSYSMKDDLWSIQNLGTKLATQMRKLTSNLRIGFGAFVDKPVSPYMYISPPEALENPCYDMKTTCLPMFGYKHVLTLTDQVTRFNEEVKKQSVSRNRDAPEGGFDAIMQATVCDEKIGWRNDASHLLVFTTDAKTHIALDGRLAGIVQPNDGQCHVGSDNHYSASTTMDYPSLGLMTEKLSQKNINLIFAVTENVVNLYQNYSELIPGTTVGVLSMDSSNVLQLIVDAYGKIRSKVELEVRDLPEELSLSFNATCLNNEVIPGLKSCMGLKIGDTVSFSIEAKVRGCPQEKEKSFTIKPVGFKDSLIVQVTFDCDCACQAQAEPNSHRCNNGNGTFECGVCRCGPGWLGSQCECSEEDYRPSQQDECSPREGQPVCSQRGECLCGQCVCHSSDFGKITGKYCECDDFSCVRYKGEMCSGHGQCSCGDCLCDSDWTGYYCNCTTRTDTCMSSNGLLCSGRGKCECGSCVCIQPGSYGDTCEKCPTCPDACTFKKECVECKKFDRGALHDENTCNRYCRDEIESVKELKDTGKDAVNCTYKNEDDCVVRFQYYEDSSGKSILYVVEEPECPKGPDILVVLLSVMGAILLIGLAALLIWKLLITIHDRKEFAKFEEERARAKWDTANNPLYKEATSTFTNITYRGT
Target sequence in this assay (P08514 32-887 limits assumed): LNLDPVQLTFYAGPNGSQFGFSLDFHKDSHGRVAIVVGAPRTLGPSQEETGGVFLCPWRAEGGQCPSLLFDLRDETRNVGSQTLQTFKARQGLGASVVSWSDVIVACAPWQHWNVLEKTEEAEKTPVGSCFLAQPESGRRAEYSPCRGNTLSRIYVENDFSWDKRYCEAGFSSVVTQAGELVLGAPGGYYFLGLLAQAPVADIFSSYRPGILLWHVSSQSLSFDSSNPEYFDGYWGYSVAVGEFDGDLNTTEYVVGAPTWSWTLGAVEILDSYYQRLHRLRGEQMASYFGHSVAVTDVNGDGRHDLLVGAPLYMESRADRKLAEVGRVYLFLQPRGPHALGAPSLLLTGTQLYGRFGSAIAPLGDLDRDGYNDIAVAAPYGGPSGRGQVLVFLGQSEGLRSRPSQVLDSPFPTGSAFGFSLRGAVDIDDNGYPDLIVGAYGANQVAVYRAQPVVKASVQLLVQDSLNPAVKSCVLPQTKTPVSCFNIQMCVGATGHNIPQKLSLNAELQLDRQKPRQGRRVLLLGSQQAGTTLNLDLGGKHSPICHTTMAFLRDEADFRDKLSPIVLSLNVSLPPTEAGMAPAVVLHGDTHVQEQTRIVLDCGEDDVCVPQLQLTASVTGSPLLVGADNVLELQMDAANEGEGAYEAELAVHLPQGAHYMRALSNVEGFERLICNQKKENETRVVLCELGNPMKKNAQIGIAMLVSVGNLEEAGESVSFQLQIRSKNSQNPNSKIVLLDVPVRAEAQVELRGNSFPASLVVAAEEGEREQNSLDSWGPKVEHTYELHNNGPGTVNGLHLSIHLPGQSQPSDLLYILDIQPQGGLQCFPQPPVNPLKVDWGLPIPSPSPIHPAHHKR
Target sequence in this assay (P08514 891-1039 limits assumed): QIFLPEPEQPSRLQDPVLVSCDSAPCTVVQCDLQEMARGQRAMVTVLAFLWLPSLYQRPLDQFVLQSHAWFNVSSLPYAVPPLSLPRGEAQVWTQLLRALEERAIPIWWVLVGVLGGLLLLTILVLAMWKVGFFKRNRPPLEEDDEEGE

[2] = molecular target: T1, Integrin alpha-IIb/beta-3; assay: Binding affinity to resting form of alpha IIb/beta3 integrin by flow cytometry using fluorescein ligand L-726,745 displacement from human platelets.
Target sequence in this assay (P05106 27-788 limits assumed): as the sequence (P05106 27-788 limits assumed) above
Target sequence in this assay (P08514 32-887 limits assumed): as the sequence (P08514 32-887 limits assumed) above
Target sequence in this assay (P08514 891-1039 limits assumed): as the sequence (P08514 891-1039 limits assumed) above

[3] = molecular target: T1, Integrin alpha-IIb/beta-3; assay: Selectivity as determined by the ratio of KDs, resting receptor over activated receptor; type: protein-complex assay
[4] = Inhibition of aggregation of human gel-filtered platelets measured by light transmittance method at 37 degrees C.

Row | SMILES | pKd [1] | pKd [2] | Selectivity [3] | pIC50 [4]
1 | C#C[C@H](CC(=O)O)NC(=O)CN1CCC[C@@H](CCc2ccnc(N)c2)C1=O | 9.11 | 6.47 | 435 | 
2 | O=C(O)C[C@@H](CO)NC(=O)c1ccc2c(c1)C(=O)N(CCC1CCNCC1)C2 | 7.68 | 7.33 | 2 | 
3 | C#C[C@H](CC(=O)O)NC(=O)c1ccc2c(c1)C(=O)N(CCc1ccnc(N)c1)C2 | 8.66 | 7.08 | 38 | 
4 | C#CC(CC(=O)O)NC(=O)CN(C(=O)c1cccc(C2CCNCC2)c1)C1CC1 (stereo unspecified) | 9.07 | 6.92 | 141 | 
5 | O=C(NC[C@H](NS(=O)(=O)c1ccccc1)C(=O)O)c1ccc(OCCC2CCNCC2)cc1 | 9.80 | 8.62 | 15 | 
6 | O=C(NC[C@H](NS(=O)(=O)c1ccccc1)C(=O)O)c1ccc2c(c1)C(=O)N(CCC1CCNCC1)C2 | 9.60 | 8.51 | 12 | 
7 | Cc1ccc(S(=O)(=O)N[C@@H](CNC(=O)c2cc3n(n2)CCCN(CCC2CCNCC2)C3=O)C(=O)O)cc1 | 10.10 |  | 18 | 
8 | C#C[C@H](CC(=O)O)NC(=O)C[C@H]1CCCN(CCc2ccnc(N)c2)C1=O | 9.59 | 7.22 | 230 | 
9 | O=C(O)CCNC(=O)c1cc2n(n1)CCCN(CCC1CCNCC1)C2=O | 7.34 |  | 14 | 6.33
10 | O=C(NC[C@H](NS(=O)(=O)c1ccccc1)C(=O)O)c1cc2cc(CCC3CCNCC3)sc2s1 | 10.05 | 8.68 | 23 | 8.10
11 | O=C(O)CCNC(=O)CN1CCc2ccc(N3CCNCC3)cc2C1=O | 8.01 |  |  | 

Other lines, results leading:

Row | pKd [1] | pKd [2] | Selectivity [3] | pIC50 [4] | SMILES
12 | 9.42 | 7.08 | 221 |  | O=C(O)C[C@H](NC(=O)CN1CCC[C@@H](CCC2CCNCC2)C1=O)c1cccnc1
13 | 7.89 | 6.92 | 9 | 7.57 | O=C(O)CCNC(=O)c1ccc2c(c1)C(=O)N(CCC1CCNCC1)C2
14 | 9.07 | 6.68 | 244 |  | C#C[C@H](CC(=O)O)NC(=O)CN1CCC[C@@H](CCC2CCNCC2)C1=O
15 | 9.60 | 8.47 | 14 |  | O=C(O)C[C@H](NC(=O)CN1CCc2ccc(N3CCNCC3)cc2C1=O)c1cccnc1
16 | 9.11 | 7.82 | 19 |  | O=C(CN1CCC[C@@H](CCC2CCNCC2)C1=O)NC[C@H](NS(=O)(=O)c1ccccc1)C(=O)O
17 |  | 6.19 | 140 |  | C[C@H](CC(=O)O)NC(=O)CN1CCC[C@@H](CCC2CCNCC2)C1=O
18 | 7.19 | 7.31 | 0.8 |  | CC(CC(=O)O)NC(=O)c1ccc2c(c1)C(=O)N(CCC1CCNCC1)C2 (stereo unspecified)
19 | 7.92 | 5.64 | 192 |  | C[C@@H](/C=C/CN1CCC[C@@H](CCC2CCNCC2)C1=O)CC(=O)O
20 | 8.17 | 7.89 | 1.9 |  | O=C(CN1CCc2ccc(N3CCNCC3)cc2C1=O)NC[C@H](NS(=O)(=O)c1ccccc1)C(=O)O
21 | 8.05 | 5.51 | 344 |  | C#CC(CCCN1CCC[C@@H](CCC2CCNCC2)C1=O)CC(=O)O (stereo partly specified)
22 | 10.25 | 8.89 | 24 |  | O=C(NC[C@H](NS(=O)(=O)c1ccccc1)C(=O)O)c1cc2cc(OCCC3CCNCC3)ccc2[nH]1
23 | 9.47 | 8.21 | 18 |  | C#C[C@H](CC(=O)O)NC(=O)C[C@H]1CCCN(CCC2CCNCC2)C1=O
24 | 9.52 | 7.96 | 37 |  | O=C(O)C[C@H](NC(=O)C[C@H]1CCCN(CCC2CCNCC2)C1=O)c1cccnc1
25 | 9.25 | 7.30 | 89 |  | C#C[C@H](CC(=O)O)NC(=O)CN1CCc2ccc(N3CCNCC3)cc2C1=O
26 | 7.82 | < 6.00 | > 67 |  | O=C(O)C[C@@H](CO)NC(=O)CN1CCc2ccc(N3CCNCC3)cc2C1=O
